Measurements published in ChEMBL document CHEMBL1138030, “Inhibitors of HCV NS5B polymerase: synthesis and structure-activity relationships of N-1-benzyl and N-1-[3-methylbutyl]-4-hydroxy-1,8-naphthyridon-3-yl benzothiadiazine analogs containing substituents on the aromatic ring” (Bioorg Med Chem Lett, 2006).

Tests used:
[1] = target: T1, RNA-directed RNA polymerase (Hepacivirus hominis, UniProt O39930); experiment: Inhibition of HCV 1a NS5B RNA polymerase; set-up: species or system Hepatitis C virus subtype 1a
[2] = target: T1, RNA-directed RNA polymerase; experiment: Inhibition of HCV 1b NS5B RNA polymerase; set-up: species or system Hepatitis C virus subtype 1b
Hepatitis C virus [3] = experiment: Inhibition of HCV 1b replication in presence of 5% fetal calf serum; assay type: functional, organism-based, Hepatitis C virus subtype 1b
Hepatitis C virus [4] = experiment: Inhibition of HCV 1b replication in presence of 40% human serum; assay type: functional, organism-based, Hepatitis C virus subtype 1b
[5] = Protein binding in plasma; assay type: ADME, cell-free; settings: read-out: PPB
[6] = Ratio of drug level in liver to plasma in rat after 8 hrs; assay type: ADME, organism-based
[7] = Bioavailability in rat at 5 mg/kg, po; assay type: ADME, organism-based; settings: in vivo
[8] = Half life in rat at 5 mg/kg, po; assay type: ADME, organism-based; set-up: dose 5 mg/kg, route oral; settings: in vivo
[9] = Cmax in rat at 5 mg/kg, po; assay type: ADME, organism-based; set-up: dose 5 mg/kg, route oral; settings: in vivo
[10] = Clearance in rat at 5 mg/kg, po; assay type: ADME, organism-based; set-up: dose 5 mg/kg, route oral; settings: in vivo

T1 sequence (O39930 whole entry): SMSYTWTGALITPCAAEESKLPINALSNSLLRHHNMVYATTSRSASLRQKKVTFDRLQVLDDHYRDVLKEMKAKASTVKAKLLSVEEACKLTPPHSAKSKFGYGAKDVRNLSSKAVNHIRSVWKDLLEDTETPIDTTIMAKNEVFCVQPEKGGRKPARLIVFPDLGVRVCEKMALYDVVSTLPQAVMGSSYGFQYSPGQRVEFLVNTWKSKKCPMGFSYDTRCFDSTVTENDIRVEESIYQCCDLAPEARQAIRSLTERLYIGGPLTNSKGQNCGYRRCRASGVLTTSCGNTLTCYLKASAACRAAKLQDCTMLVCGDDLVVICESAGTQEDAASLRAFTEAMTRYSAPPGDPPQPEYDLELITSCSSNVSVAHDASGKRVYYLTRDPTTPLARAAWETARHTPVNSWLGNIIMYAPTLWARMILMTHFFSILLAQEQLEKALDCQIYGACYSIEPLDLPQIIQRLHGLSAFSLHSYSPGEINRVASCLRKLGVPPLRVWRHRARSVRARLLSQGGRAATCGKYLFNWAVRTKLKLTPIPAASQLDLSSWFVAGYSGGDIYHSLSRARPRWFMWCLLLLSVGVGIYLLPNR

| IC50 [1] | IC50 [2] | SMILES | further results |
| --- | --- | --- | --- |
| 810 nM | 41 nM | CC(C)CCn1c(=O)c(C2=NS(=O)(=O)c3ccccc3N2)c(O)c2cccnc21 |  |
| 934 nM | 70 nM | CC(C)CCn1c(=O)c(C2=NS(=O)(=O)c3cc(OCC(=O)N(C)C)ccc3N2)c(O)c2cccnc21 |  |
| 120 nM | 24 nM | CC(C)CCn1c(=O)c(C2=Nc3ccc(NCC#N)cc3S(=O)(=O)N2)c(O)c2cccnc21 |  |
| 41 nM | 7 nM | CC(C)CCn1c(=O)c(C2=Nc3ccc(NS(=O)(=O)c4ccccc4)cc3S(=O)(=O)N2)c(O)c2cccnc21 | EC50 (Hepatitis C virus [3]): 1690 nM |
| 8310 nM | 76 nM | COc1ccc2c(c1)S(=O)(=O)NC(c1c(O)c3cccnc3n(Cc3ccccc3)c1=O)=N2 |  |
| 8370 nM | 54 nM | O=c1c(C2=NS(=O)(=O)c3cccc(O)c3N2)c(O)c2cccnc2n1Cc1ccccc1 |  |
|  | 2510 nM | O=c1c(C2=NS(=O)(=O)c3ccc(O)cc3N2)c(O)c2cccnc2n1Cc1ccccc1 |  |
| 46 nM | 16 nM | CC(C)CCn1c(=O)c(C2=Nc3ccc(OCC(N)=O)cc3S(=O)(=O)N2)c(O)c2cccnc21 | Kp at 8 h [6]: 54; EC50 (Hepatitis C virus [3]): 78 nM; bioavailability [7]: 35%; EC50 (Hepatitis C virus [4]): 2740 nM; fraction unbound [5]: < 0.01; half-life [8]: 2 h; Cmax [9]: 180 nM; CL/F [10]: 12.3 mL/min/kg |
| 367 nM | 57 nM | CC(C)CCn1c(=O)c(C2=NS(=O)(=O)c3cc(OCC(=O)O)ccc3N2)c(O)c2cccnc21 |  |
|  | 3900 nM | COc1ccc2c(c1)N=C(c1c(O)c3cccnc3n(Cc3ccccc3)c1=O)NS2(=O)=O |  |
| 310 nM | 23 nM | CC(C)CCn1c(=O)c(C2=Nc3ccc(N)cc3S(=O)(=O)N2)c(O)c2cccnc21 | EC50 (Hepatitis C virus [3]): 480 nM |
| 1620 nM | 930 nM | CCCOc1ccc2c(c1)S(=O)(=O)NC(c1c(O)c3cccnc3n(CCC(C)C)c1=O)=N2 |  |
| 5000 nM | 850 nM | CC(C)CCn1c(=O)c(C2=Nc3ccc(OCC(=O)OC(C)(C)C)cc3S(=O)(=O)N2)c(O)c2cccnc21 |  |
| 18000 nM | 2120 nM | COc1cccc2c1NC(c1c(O)c3cccnc3n(Cc3ccccc3)c1=O)=NS2(=O)=O |  |
| 906 nM | 70 nM | CC(C)CCn1c(=O)c(C2=NS(=O)(=O)c3cc(NC(=O)C(F)(F)F)ccc3N2)c(O)c2cccnc21 |  |
| 390 nM | 42 nM | CC(C)CCn1c(=O)c(C2=NS(=O)(=O)c3cc(O)ccc3N2)c(O)c2cccnc21 |  |
| 6700 nM | 96 nM | Cc1cccc2c1N=C(c1c(O)c3cccnc3n(Cc3ccccc3)c1=O)NS2(=O)=O |  |

Continued, compound first:

| SMILES | IC50 [1] | IC50 [2] | further results |
| --- | --- | --- | --- |
| O=c1c(C2=NS(=O)(=O)c3ccccc3N2)c(O)c2cccnc2n1Cc1ccccc1 | 5800 nM |  |  |
| CC(C)CCn1c(=O)c(C2=Nc3ccc(OCc4ccccc4)cc3S(=O)(=O)N2)c(O)c2cccnc21 |  | 1490 nM |  |
| CC(C)CCn1c(=O)c(C2=NS(=O)(=O)c3cc(NS(C)(=O)=O)ccc3N2)c(O)c2cccnc21 | 2 nM |  | EC50 (Hepatitis C virus [3]): 3 nM; EC50 (Hepatitis C virus [4]): 1310 nM; fraction unbound [5]: < 0.01 |
| CC(C)CCn1c(=O)c(C2=NS(=O)(=O)c3cc(NS(=O)(=O)C(C)C)ccc3N2)c(O)c2cccnc21 | 8 nM | 3 nM | EC50 (Hepatitis C virus [3]): 110 nM |
| Cc1ccc2c(c1)S(=O)(=O)NC(c1c(O)c3cccnc3n(Cc3ccccc3)c1=O)=N2 | 25700 nM | 230 nM |  |
| CCCCS(=O)(=O)Nc1ccc2c(c1)S(=O)(=O)NC(c1c(O)c3cccnc3n(CCC(C)C)c1=O)=N2 | 22 nM | 5 nM | EC50 (Hepatitis C virus [3]): 1000 nM |
| O=c1c(C2=NS(=O)(=O)c3cccc(Br)c3N2)c(O)c2cccnc2n1Cc1ccccc1 | 6200 nM | 1170 nM |  |
| COc1cccc2c1N=C(c1c(O)c3cccnc3n(CCC(C)C)c1=O)NS2(=O)=O | 17600 nM | 1170 nM |  |
| COc1ccc2c(c1)S(=O)(=O)N=C(c1c(O)c3cccnc3n(CCC(C)C)c1=O)N2 | 1130 nM | 65 nM |  |
| O=c1c(C2=Nc3ccc(Br)cc3S(=O)(=O)N2)c(O)c2cccnc2n1Cc1ccccc1 | 16800 nM | 756 nM |  |
| CC(C)CCn1c(=O)c(C2=NS(=O)(=O)c3cc(OCC#N)ccc3N2)c(O)c2cccnc21 | 141 nM | 25 nM |  |
| CC(C)CCn1c(=O)c(C2=Nc3ccc(NCC(N)=O)cc3S(=O)(=O)N2)c(O)c2cccnc21 | 470 nM | 34 nM | EC50 (Hepatitis C virus [3]): 450 nM |
| CNC(=O)COc1ccc2c(c1)S(=O)(=O)NC(c1c(O)c3cccnc3n(CCC(C)C)c1=O)=N2 | 180 nM | 80 nM |  |
| CC(C)CCn1c(=O)c(C2=Nc3ccc(OCCN)cc3S(=O)(=O)N2)c(O)c2cccnc21 | 637 nM | 51 nM |  |
